Test results published in publication PMC6008465 (British Journal of Cancer, 2018).
Marks after values point to notes of the source that are not given here.

Key:
[1] = Part B pharmacokinetics by BRAF genotype; format: in vivo, human; details: Part B dose-expansion, by dose and genotype
Method: (§1) In Part A, blood was collected on Cycle 1, Days 1 and 15 at specified intervals prior to, during, and postinfusion (5 min–8 h), and on Days 2, 3, 16, and 17 (24 and 48 h postinfusion). Urine was collected on Cycle 1, Day 1 preinfusion, at 0–8 h, and 8–24 h. In Part B, blood was collected on Cycle 1, Day 1, prior to, during, and at 1–24 h postinfusion. Pharmacokinetic parameters were calculated using noncompartmental analysis.

[2] = Part A pharmacokinetics (plasma and urine, noncompartmental analysis); format: in vivo, human
Method: as §1

[3] = preclinical; cited from earlier work
[4] = test system: BRAF-mutated human cancer xenograft models; details: Q4D x3 schedule; cited from earlier work
[5] = Cycle 1 Day 1, 160 mg/m^2 (n=3)
[6] = Cycle 1 Day 1, 320 mg/m^2 (n=7)
[7] = Cycle 1 Day 1, 400 mg/m^2 (n=1)
[8] = Cycle 1 Day 1, 480 mg/m^2 (n=4)
[9] = Cycle 1 Day 15, 20 mg/m^2 (n=3)
[10] = Cycle 1 Day 15, 40 mg/m^2 (n=3)
[11] = Cycle 1 Day 15, 80 mg/m^2 (n=3)
[12] = Cycle 1 Day 15, 160 mg/m^2 (n=3)
[13] = Cycle 1 Day 15, 320 mg/m^2 (n=6)
[14] = Cycle 1 Day 15, 400 mg/m^2 (n=1)
[15] = Cycle 1 Day 15, 480 mg/m^2 (n=4)

Compound: CCNc1cc(O)c2c(c1)/C=C/C[C@H](O)[C@H](O)C(=O)/C=C\[C@@H](C)[C@H](C)OC2=O [E6201, (3S,4R,5Z,8S,9S,11E)-14-(ethylamino)-8,9,16-trihydroxy-3,4-dimethyl-3,4,9,19-tetrahydro-1H-2-benzoxacyclotetradecine-1,7 (8H)-dione]
- Effect of BRAF mutation on PK properties [1]: no effect
- Fraction of E6201 excreted in the urine ([2]; 24-hour collection interval): ≤ 0.21%
- AUC(0-t), mean (%CV) ([2]; Cycle 1 Day 1, 20 mg/m^2 (n=4)): 1650 (218) ng·h/mL
- CLR (renal clearance), mean (%CV) ([2]; Cycle 1 Day 1, 20 mg/m^2 (n=4)): 10.0 (188) mL/h
- Cmax, mean (%CV) ([2]; Cycle 1 Day 1, 20 mg/m^2 (n=4)): 552 (50) ng/mL
- Tmax, median (range) ([2]; Cycle 1 Day 1, 20 mg/m^2 (n=4)): 0.5 (0.25–0.5) h
- fe (fraction of drug excreted in urine), mean (%CV) ([2]; Cycle 1 Day 1, 20 mg/m^2 (n=4)): 0.0125 (42) %
- t½, mean ([2]; Cycle 1 Day 1, 20 mg/m^2, n=2): 1.96^b (--) h
- CL, mean (%CV) ([2]; Cycle 1 Day 1, 20 mg/m^2, n=2, %CV 2): 110^b (2) L/h
- Vss, mean (%CV) ([2]; Cycle 1 Day 1, 20 mg/m^2, n=2, %CV 28): 135^b (28) L
- AUC(0-t), mean (%CV) ([2]; Cycle 1 Day 1, 40 mg/m^2 (n=3)): 2410 (201) ng·h/mL
- CLR (renal clearance), mean (%CV) ([2]; Cycle 1 Day 1, 40 mg/m^2 (n=3)): 1.65 (--) mL/h
- Cmax, mean (%CV) ([2]; Cycle 1 Day 1, 40 mg/m^2 (n=3)): 870 (70) ng/mL
- Tmax, median (range) ([2]; Cycle 1 Day 1, 40 mg/m^2 (n=3)): 0.5 (0.5–0.5) h
- fe (fraction of drug excreted in urine), mean (%CV) ([2]; Cycle 1 Day 1, 40 mg/m^2 (n=3)): 0 (--) %
- t½, mean ([2]; Cycle 1 Day 1, 40 mg/m^2, n=2): 2.70^b (--) h
- Vss, mean (%CV) ([2]; Cycle 1 Day 1, 40 mg/m^2, n=2, %CV 21): 164^b (21) L
- CL, mean (%CV) ([2]; Cycle 1 Day 1, 40 mg/m^2, n=2, %CV 25): 103^b (25) L/h
- AUC(0-t), mean (%CV) ([2]; Cycle 1 Day 1, 80 mg/m^2 (n=3)): 2520 (63) ng·h/mL
- CL, mean (%CV) ([2]; Cycle 1 Day 1, 80 mg/m^2 (n=3)): 68.7 (60) L/h
- CLR (renal clearance), mean (%CV) ([2]; Cycle 1 Day 1, 80 mg/m^2 (n=3)): 28.9 (54) mL/h
- Cmax, mean (%CV) ([2]; Cycle 1 Day 1, 80 mg/m^2 (n=3)): 3350 (149) ng/mL
- Tmax, median (range) ([2]; Cycle 1 Day 1, 80 mg/m^2 (n=3)): 0.5 (0.25–0.5) h
- Vss, mean (%CV) ([2]; Cycle 1 Day 1, 80 mg/m^2 (n=3)): 135 (100) L
- fe (fraction of drug excreted in urine), mean (%CV) ([2]; Cycle 1 Day 1, 80 mg/m^2 (n=3)): 0.04 (26) %
- t½, mean ([2]; Cycle 1 Day 1, 80 mg/m^2 (n=3)): 2.79 (--) h
- AUC(0-t), mean (%CV) [2, 5]: 2770 (36) ng·h/mL
- CL, mean (%CV) [2, 5]: 119 (50) L/h
- CLR (renal clearance), mean (%CV) [2, 5]: 89.7 (299) mL/h
- Cmax, mean (%CV) [2, 5]: 2740 (51) ng/mL
- Tmax, median (range) [2, 5]: 0.5 (0.25–0.5) h
- Vss, mean (%CV) [2, 5]: 216 (55) L
- fe (fraction of drug excreted in urine), mean (%CV) [2, 5]: 0.0567 (186) %
- t½, mean [2, 5]: 3.98 (--) h
- AUC(0-t), mean (%CV) [2, 6]: 10400 (26) ng·h/mL
- CL, mean (%CV) [2, 6]: 57.2 (22) L/h
- CLR (renal clearance), mean (%CV) [2, 6]: 60.0 (659) mL/h
- Cmax, mean (%CV) [2, 6]: 14800 (73) ng/mL
- Tmax, median (range) [2, 6]: 0.25 (0.25–0.5) h
- Vss, mean (%CV) [2, 6]: 89.1 (36) L
- fe (fraction of drug excreted in urine), mean (%CV) [2, 6]: 0.109 (56) %
- t½, mean [2, 6]: 4.00 (--) h
- AUC(0-t), mean (%CV) [2, 7]: 13500 (--) ng·h/mL
- CL, mean (%CV) [2, 7]: 52.8 (--) L/h
- CLR (renal clearance), mean (%CV) [2, 7]: 111 (--) mL/h
- Cmax, mean (%CV) [2, 7]: 19500 (--) ng/mL
- Tmax, median (range) [2, 7]: 0.25 (0.25–0.25) h
- Vss, mean (%CV) [2, 7]: 80.1 (---) L
- fe (fraction of drug excreted in urine), mean (%CV) [2, 7]: 0.21 (--) %
- t½, mean [2, 7]: 6.50 (--) h
- AUC(0-t), mean (%CV) [2, 8]: 10200 (56) ng·h/mL
- CL, mean (%CV) [2, 8]: 101 (44) L/h
- CLR (renal clearance), mean (%CV) [2, 8]: 137 (128) mL/h
- Cmax, mean (%CV) [2, 8]: 8070 (55) ng/mL
- Tmax, median (range) [2, 8]: 0.375 (0.25–0.5) h
- Vss, mean (%CV) [2, 8]: 275 (42) L
- fe (fraction of drug excreted in urine), mean (%CV) [2, 8]: 0.143 (96) %
- t½, mean [2, 8]: 5.97 (--) h
- AUC(0-t), mean (%CV) [2, 9]: 1420 (250) ng·h/mL
- Cmax, mean (%CV) [2, 9]: 895 (228) ng/mL
- Tmax, median (range) [2, 9]: 0.5 (0.25–0.5) h
- CL, mean (%CV) ([2]; Cycle 1 Day 15, 20 mg/m^2, n=1): 184^c (--) L/h
- Vss, mean (%CV) ([2]; Cycle 1 Day 15, 20 mg/m^2, n=1): 324^ c (--) L
- t½, mean ([2]; Cycle 1 Day 15, 20 mg/m^2, n=1): 1.58^c (--) h
- AUC(0-t), mean (%CV) [2, 10]: 2090 (169) ng·h/mL
- Cmax, mean (%CV) [2, 10]: 767 (78) ng/mL
- Tmax, median (range) [2, 10]: 0.5 (0.25–0.5) h
- t½, mean ([2]; Cycle 1 Day 15, 40 mg/m^2, n=2): 1.88^ b (--) h
- Vss, mean (%CV) ([2]; Cycle 1 Day 15, 40 mg/m^2, n=2, %CV 27): 115^b (27) L
- CL, mean (%CV) ([2]; Cycle 1 Day 15, 40 mg/m^2, n=2, %CV 47): 91^b (47) L/h
- AUC(0-t), mean (%CV) [2, 11]: 2540 (66) ng·h/mL
- Cmax, mean (%CV) [2, 11]: 2590 (154) ng/mL
- Tmax, median (range) [2, 11]: 0.25 (0.25–0.5) h
- t½, mean [2, 11]: 5.55 (--) h
- CL, mean (%CV) ([2]; Cycle 1 Day 15, 80 mg/m^2, n=2, %CV 67): 76.2^ b (67) L/h
- Vss, mean (%CV) ([2]; Cycle 1 Day 15, 80 mg/m^2, n=2, %CV 146): 148^ b (146) L
- AUC(0-t), mean (%CV) [2, 12]: 4300 (32) ng·h/mL
- CL, mean (%CV) [2, 12]: 71.2 (18) L/h
- Cmax, mean (%CV) [2, 12]: 5430 (120) ng/mL
- Tmax, median (range) [2, 12]: 0.25 (0.25–0.5) h
- Vss, mean (%CV) [2, 12]: 110 (74) L
- t½, mean [2, 12]: 4.20 (--) h
- AUC(0-t), mean (%CV) [2, 13]: 11100 (13) ng·h/mL
- CL, mean (%CV) [2, 13]: 49.8 (18) L/h
- Cmax, mean (%CV) [2, 13]: 18000 (64) ng/mL
- Tmax, median (range) [2, 13]: 0.25 (0.25–0.5) h
- Vss, mean (%CV) [2, 13]: 111 (69) L
- t½, mean [2, 13]: 6.83 (--) h
- AUC(0-t), mean (%CV) [2, 14]: 10500 (--) ng·h/mL
- Cmax, mean (%CV) [2, 14]: 21600 (--) ng/mL
- Tmax, median (range) [2, 14]: 0.25 (0.25–0.25) h
- AUC(0-t), mean (%CV) [2, 15]: 11300 (73) ng·h/mL
- CL, mean (%CV) [2, 15]: 82 (38) L/h
- Cmax, mean (%CV) [2, 15]: 12200 (88) ng/mL
- Tmax, median (range) [2, 15]: 0.375 (0.25–0.5) h
- Vss, mean (%CV) [2, 15]: 217 (84) L
- t½, mean [2, 15]: 4.78 (--) h
- Accumulation on multiple dosing ([2]; Day 15 vs Day 1, once-weekly dosing): Lack of E6201 accumulation
- Mean clearance (CL), range over dose groups ([2]; Part A): 49.8 to 184 L/h
- Renal clearance (CLR), range over dose groups ([2]; Part A): 1.65 to 137 mL/h
- Time of peak E6201 concentration (mid-to-end of infusion) ([2]; Part A, 30-min IV infusion): 0.25 to 0.5 h
- t1/2 of E6201 [3]: 3 to 6 h
- Duration of significant and prolonged anti-tumour activity from first dose [4]: > 20 days
